Laboratory results: PubChem BioAssay AID248 (DTP/NCI, 2004)
Values joined by “and” are separate entries in the source; they are usually repeats but may differ in a detail not shown here. Equal entries are not always repeated. Toxic doses and inconclusive results are not listed.

Tested on: L1210 leukemia ip in BDF1 mice, survival T/C
Assay: NCI In Vivo Anticancer Drug Screen. Data for tumor model L1210 Leukemia (intraperitoneal) in B6D2F1 (BDF1) mice
Settings: endpoint: mean survival time, higher = longer survival
In short: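 Tumor cells were implanted, animals were treated, and survival was followed. The result divides the treated measurement by the vehicle-control measurement.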

[1] = dose: 100.0 mg/kg/injection, schedule: Q01DX009 (ip), vehicle: saline with Tween-80
[2] = dose: 200.0 mg/kg/injection, schedule: Q01DX009 (ip), vehicle: saline with Tween-80
[3] = dose: 100.0 mg/kg/injection, schedule: Q04DX003 (ip), vehicle: saline with Tween-80
[4] = dose: 200.0 mg/kg/injection, schedule: Q04DX003 (ip), vehicle: saline with Tween-80
[5] = dose: 400.0 mg/kg/injection, schedule: Q04DX003 (ip), vehicle: saline with Tween-80
[6] = dose: 100.0 mg/kg/injection, schedule: Q04DX002 (ip), vehicle: saline with Tween-80

SMILES: CCCCC(CC)CNCC(CC)CCCC (stereo unspecified)
- T/C (dose: 25.0 mg/kg/injection, schedule: Q04DX003 (ip), vehicle: carboxymethylcellulose (CMC)): 100 % of control
- T/C (dose: 50.0 mg/kg/injection, schedule: Q04DX003 (ip), vehicle: carboxymethylcellulose (CMC)): 102 % of control
- T/C (dose: 100.0 mg/kg/injection, schedule: Q04DX003 (ip), vehicle: carboxymethylcellulose (CMC)): 97 % of control
- T/C (dose: 100.0 mg/kg/injection, schedule: Q04DX013 (ip), vehicle: carboxymethylcellulose (CMC)): 96 % of control

SMILES: C=CCNC(=O)Oc1cccc(NC(=O)CC)c1
- T/C [1]: 94 % of control
- T/C [2]: 91 % of control
- T/C (dose: 400.0 mg/kg/injection, schedule: Q01DX009 (ip), vehicle: saline with Tween-80): 87 % of control

SMILES: C[C@]12CC[C@H]3C(=CCc4cc(O)ccc43)[C@@H]1CCC2=O
- T/C (dose: 100.0 mg/kg/injection, schedule: Q01DX001 (sc), vehicle: steriod suspending solution): 94 % of control
- T/C (dose: 200.0 mg/kg/injection, schedule: Q01DX001 (sc), vehicle: steriod suspending solution): 100 % of control
- T/C (dose: 400.0 mg/kg/injection, schedule: Q01DX001 (sc), vehicle: steriod suspending solution): 91 % of control

SMILES: COc1cccc(/C(C)=N\Nc2ccc([N+](=O)[O-])cc2[N+](=O)[O-])c1OC
- T/C (dose: 50.0 mg/kg/injection, schedule: Q01DX009 (ip), vehicle: saline): 92 % of control
- T/C (dose: 100.0 mg/kg/injection, schedule: Q01DX009 (ip), vehicle: saline): 90 % of control
- T/C [3]: 94 % of control and 96 % of control
- T/C [4]: 87 % of control
- T/C [5]: 86 % of control and 92 % of control

SMILES: Fc1ccc([P+]2(c3ccc(F)cc3)C=C(c3ccccc3)[P+](c3ccc(F)cc3)(c3ccc(F)cc3)C=C2c2ccccc2)cc1
- T/C (dose: 12.5 mg/kg/injection, schedule: Q01DX001 (ip), vehicle: saline with Tween-80): 100 % of control
- T/C (dose: 25.0 mg/kg/injection, schedule: Q01DX001 (ip), vehicle: saline with Tween-80): 98 % of control
- T/C (dose: 50.0 mg/kg/injection, schedule: Q01DX001 (ip), vehicle: saline with Tween-80): 100 % of control

SMILES: C[P+](c1ccccc1)(c1ccc(Cl)cc1)c1ccc(Cl)cc1
- T/C (dose: 25.0 mg/kg/injection, schedule: Q04DX002 (ip), vehicle: saline): 100 % of control
- T/C (dose: 50.0 mg/kg/injection, schedule: Q04DX002 (ip), vehicle: saline): 95 % of control
- T/C [6]: 116 % of control

SMILES: Cc1ccc(S(=O)(=O)Oc2c(Cl)c(Cl)c(Cl)c(Cl)c2Cl)cc1
- T/C (dose: 100.0 mg/kg/injection, schedule: Q01DX001 (ip), vehicle: other): 94 % of control
- T/C (dose: 100.0 mg/kg/injection, schedule: Q01DX009 (ip), vehicle: other): 92 % of control
- T/C (dose: 100.0 mg/kg/injection, schedule: Q04DX003 (ip), vehicle: other): 92 % of control
- T/C (dose: 200.0 mg/kg/injection, schedule: Q01DX001 (ip), vehicle: other): 102 % of control
- T/C (dose: 200.0 mg/kg/injection, schedule: Q01DX009 (ip), vehicle: other): 86 % of control
- T/C (dose: 200.0 mg/kg/injection, schedule: Q04DX003 (ip), vehicle: other): 93 % of control
- T/C (dose: 400.0 mg/kg/injection, schedule: Q01DX001 (ip), vehicle: other): 88 % of control
- T/C (dose: 400.0 mg/kg/injection, schedule: Q04DX003 (ip), vehicle: other): 90 % of control

SMILES: O=[N+]([O-])c1ccc(Oc2c(Cl)c(Cl)c(Cl)c(Cl)c2Cl)c([N+](=O)[O-])c1
- T/C (dose: 222.0 mg/kg/injection, schedule: Q01DX Z (ip), vehicle: methylcellulose (MC)): 95 % of control
- T/C (dose: 333.0 mg/kg/injection, schedule: Q01DX Z (ip), vehicle: methylcellulose (MC)): 94 % of control
- T/C (dose: 500.0 mg/kg/injection, schedule: Q01DX Z (ip), vehicle: methylcellulose (MC)): 93 % of control

SMILES: CC(=O)CC(=O)Nc1ccc(C(=O)c2ccccc2)cc1
- T/C (dose: 37.5 mg/kg/injection, schedule: Q01DX009 (ip), vehicle: saline): 98 % of control
- T/C (dose: 75.0 mg/kg/injection, schedule: Q01DX001 (ip), vehicle: acetone): 87 % of control
- T/C (dose: 75.0 mg/kg/injection, schedule: Q01DX001 (ip), vehicle: saline): 95 % of control
- T/C (dose: 75.0 mg/kg/injection, schedule: Q01DX009 (ip), vehicle: saline): 93 % of control
- T/C (dose: 150.0 mg/kg/injection, schedule: Q01DX001 (ip), vehicle: saline): 98 % of control
- T/C (dose: 150.0 mg/kg/injection, schedule: Q01DX009 (ip), vehicle: saline): 107 % of control
- T/C (dose: 300.0 mg/kg/injection, schedule: Q01DX001 (ip), vehicle: acetone): 98 % of control
- T/C (dose: 300.0 mg/kg/injection, schedule: Q01DX001 (ip), vehicle: saline): 90 % of control

SMILES: CCOC(CN1CCCCC1)c1ccccc1 (stereo unspecified)
- T/C (dose: 12.5 mg/kg/injection, schedule: Q01DX009 (ip), vehicle: saline with Tween-80): 98 % of control
- T/C (dose: 25.0 mg/kg/injection, schedule: Q01DX009 (ip), vehicle: saline with Tween-80): 102 % of control
- T/C (dose: 50.0 mg/kg/injection, schedule: Q01DX009 (ip), vehicle: saline with Tween-80): 100 % of control

SMILES: Cc1ccc(S(=O)(=O)N(CCCc2c(C)nc(N)[nH]c2=O)Cc2ccc([N+](=O)[O-])cc2)cc1
- T/C (dose: 75.0 mg/kg/injection, schedule: Q01DX001 (ip), vehicle: Klucel (hydroxypropylcellulose) (HPC)): 102 % of control
- T/C (dose: 150.0 mg/kg/injection, schedule: Q01DX001 (ip), vehicle: Klucel (hydroxypropylcellulose) (HPC)): 97 % of control
- T/C (dose: 300.0 mg/kg/injection, schedule: Q01DX001 (ip), vehicle: Klucel (hydroxypropylcellulose) (HPC)): 103 % of control

SMILES: NS(=O)(=O)c1ccc(N=Nc2nc3[nH]cnc(=S)c3[nH]2)cc1
- T/C (dose: 8.0 mg/kg/injection, schedule: Q01DX009 (ip), vehicle: saline): 116 % of control
- T/C (dose: 15.0 mg/kg/injection, schedule: Q01DX009 (ip), vehicle: saline): 121 % of control
- T/C (dose: 62.5 mg/kg/injection, schedule: Q01DX015 (ip), vehicle: saline): 115 % of control
- T/C (dose: 125.0 mg/kg/injection, schedule: Q01DX015 (ip), vehicle: saline): 121 % of control
- T/C (dose: 250.0 mg/kg/injection, schedule: Q01DX009 (ip), vehicle: saline): 104 % of control
- T/C (dose: 250.0 mg/kg/injection, schedule: Q01DX015 (ip), vehicle: saline): 153 % of control

SMILES: O=C1CC(CO)CN1CCc1ccccc1 (stereo unspecified)
- T/C [3]: 96 % of control
- T/C [4]: 94 % of control
- T/C [5]: 96 % of control

SMILES: CCCCCCCC(CCCCCC)CCCCCCC
- T/C (dose: 50.0 mg/kg/injection, schedule: Q04DX002 (ip), vehicle: saline with Tween-80): 89 % of control
- T/C [6]: 110 % of control
- T/C (dose: 200.0 mg/kg/injection, schedule: Q04DX002 (ip), vehicle: saline with Tween-80): 103 % of control
- T/C (dose: 400.0 mg/kg/injection, schedule: Q04DX002 (ip), vehicle: saline with Tween-80): 106 % of control

SMILES: CC1(CO)CCCC2(C)C3=C(CCCC3)CCC12 (stereo unspecified)
- T/C (dose: 5.0 mg/kg/injection, schedule: Q01DX001 (ip), vehicle: other): 102 % of control
- T/C (dose: 10.0 mg/kg/injection, schedule: Q01DX001 (ip), vehicle: other): 96 % of control
- T/C (dose: 20.0 mg/kg/injection, schedule: Q01DX001 (ip), vehicle: other): 100 % of control
- T/C (dose: 40.0 mg/kg/injection, schedule: Q01DX001 (ip), vehicle: other): 98 % of control
- T/C (dose: 80.0 mg/kg/injection, schedule: Q01DX001 (ip), vehicle: other): 98 % of control

SMILES: CCOc1ccc(-n2cnc3c(=O)[nH]c(N)nc32)cc1
- T/C (dose: 100.0 mg/kg/injection, schedule: Q01DX009 (ip), vehicle: Klucel (hydroxypropylcellulose) (HPC)): 93 % of control
- T/C (dose: 200.0 mg/kg/injection, schedule: Q01DX009 (ip), vehicle: Klucel (hydroxypropylcellulose) (HPC)): 91 % of control
- T/C (dose: 400.0 mg/kg/injection, schedule: Q01DX009 (ip), vehicle: Klucel (hydroxypropylcellulose) (HPC)): 91 % of control

SMILES: COC(=O)NC1CC(OC(=O)c2ccc(C)cc2)C(COC(=O)c2ccc(C)cc2)O1 (stereo unspecified)
- T/C (dose: 50.0 mg/kg/injection, schedule: Q04DX003 (ip), vehicle: saline with Tween-80): 96 % of control
- T/C (dose: 66.0 mg/kg/injection, schedule: Q04DX003 (ip), vehicle: saline): 94 % of control
- T/C [3]: 97 % of control
- T/C (dose: 100.0 mg/kg/injection, schedule: Q04DX003 (ip), vehicle: saline): 100 % of control
- T/C (dose: 150.0 mg/kg/injection, schedule: Q04DX003 (ip), vehicle: saline): 95 % of control
- T/C [4]: 100 % of control
- T/C (dose: 225.0 mg/kg/injection, schedule: Q04DX003 (ip), vehicle: saline): 95 % of control
- T/C (dose: 337.0 mg/kg/injection, schedule: Q04DX003 (ip), vehicle: saline): 103 % of control
- T/C [5]: 96 % of control

SMILES: COc1ccc(Cl)cc1NC(=O)N/N=C(\C)CC(C)C
- T/C [1]: 91 % of control
- T/C [3]: 97 % of control
- T/C [2]: 91 % of control
- T/C [4]: 101 % of control
- T/C [5]: 101 % of control
